According to PMC10504751, “Chalcone/1,3,4-Oxadiazole/Benzimidazole hybrids as novel anti-proliferative agents inducing apoptosis and inhibiting EGFR & BRAFV^600E” (BMC Chemistry, 2023):
Where two headings read alike, the source gives them in different places.

Key:
BRAF^V600E = test: biochemical
Experimental: To further denature the protein, heat (70° C) was applied for 5 min. […] 10 µL of each reaction was loaded into the precast plates and electrophoresis was allowed to proceed. After completion of electrophoresis, the front part of the precast gel plate (holding hot ATP) was cut and afterwards cast-off. The dried gel was developed using a phosphor screen.

[1] = MTT cell viability assay in normal cells; assay type: cell-based; conditions: human, MCF-10A normal mammary epithelial cells
Experimental: To check the safety of prepared compounds and evaluate their selectivity towards tumor cells over normal ones, the toxicity of compounds 7a-x were evaluated by 3-(4,5-Dimethylthiazole-2-yl)-2,5-diphenyltetrazol (MTT) assay on the normal human mammary epithelial cell line (MCF-10 A). The human mammary epithelial cell lines were incubated for four days with a concentration of 50 µM of compounds 7a-x.
MTT assay was done to determine the effect of the synthesized compounds on the viability of mammary epithelial cells (MCF-10 A). Compounds 7a-x were incubated with MCF-10 A cells for 4 days at 50 µM concentration, and the viability of cells was determined. See Appendix A.
MTT assay was carried out to study the effect of compounds on mammary epithelial cells (MCF-10A).^7, ^8 The medium in which cells were propagated contained Dulbecco's modified Eagle's medium (DMEM)/ Ham's F-12 medium (1:1) supplemented with epidermal growth factor (20 ng/mL), hydrocortisone (500 ng/mL), insulin (10 μg/mL), 2 mM glutamine and 10% foetal calf serum. After every 2-3 days, the cells were passaged using trypsin ethylenediamine tetra acetic acid (EDTA). The cells were seeded at a density of 10^4 cells mL^-1 in flat-bottomed culture plates containing 96 wells each. After 24 h, medium was removed from the plates and the compounds in (in 0.1% DMSO) were added (in 200 μL medium to yield a final concentration of 0.1% v/v) to the wells of plates. A single compound was designated with four wells followed by incubation of plates for 96h at 37°C. After incubation, medium was removed completely from the plates followed by addition of MTT (0.4 mg/mL in medium) to each well and subsequent incubation of plates for 3h. MTT (along with the medium) was removed and DMSO (150μL) was added to each well of the culture plates, followed by vortexing and subsequent measurement of absorbance (at 540 nm) using microplate reader.

HOP-62 = test: NCI one-dose SRB anti-proliferative screen; assay type: cell-based; conditions: Homo sapiens, read-out: Cell growth inhibition %
Procedure, shortened: (§1)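 Sulforhodamine B colorimetric read-out of growth inhibition across the NCI 60-cell-line, nine-subpanel screen. Each compound was given at one 10 µM dose.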

SK-MEL-5 = test: NCI one-dose SRB anti-proliferative screen; assay type: cell-based; conditions: Homo sapiens, read-out: Cell growth inhibition %
Procedure, shortened: as §1

DU-145 = test: NCI one-dose SRB anti-proliferative screen; assay type: cell-based; conditions: Homo sapiens, read-out: Cell growth inhibition %
Procedure, shortened: as §1

EKVX = test: NCI one-dose SRB anti-proliferative screen; assay type: cell-based; conditions: Homo sapiens, read-out: Cell growth inhibition %
Procedure, shortened: as §1

CCRF-CEM = test: NCI one-dose SRB anti-proliferative screen; assay type: cell-based; conditions: Homo sapiens, read-out: Cell growth inhibition %
Procedure, shortened: as §1

MCF7 = test: NCI one-dose SRB anti-proliferative screen; assay type: cell-based; conditions: Homo sapiens, read-out: Cell growth inhibition %
Procedure, shortened: as §1

KM12 = test: NCI one-dose SRB anti-proliferative screen; assay type: cell-based; conditions: Homo sapiens, read-out: Cell growth inhibition %
Procedure, shortened: as §1

SK-OV-3 = test: NCI one-dose SRB anti-proliferative screen; assay type: cell-based; conditions: Homo sapiens, read-out: Cell growth inhibition %
Procedure, shortened: as §1

UACC-257 = test: NCI one-dose SRB anti-proliferative screen; assay type: cell-based; conditions: Homo sapiens, read-out: Cell growth inhibition %
Procedure, shortened: as §1

HCC-2998 = test: NCI one-dose SRB anti-proliferative screen; assay type: cell-based; conditions: Homo sapiens, read-out: Cell growth inhibition %
Procedure, shortened: as §1

SW-620 = test: NCI one-dose SRB anti-proliferative screen; assay type: cell-based; conditions: Homo sapiens, read-out: Cell growth inhibition %
Procedure, shortened: as §1

COLO 205 = test: NCI one-dose SRB anti-proliferative screen; assay type: cell-based; conditions: Homo sapiens, read-out: Cell growth inhibition %
Procedure, shortened: as §1

EGFR = biological target: T1, EGFR (Homo sapiens, UniProt P00533); test: EGFR-TK inhibitory assay; assay type: biochemical; conditions: read-out: EGFR Inhibition IC50 ± SEM
T1 construct: EGFR cytoplasmic domain (EGFR-CD, amino acids 645–1186); His6 (N); made in house; host or cells: Sf-9 insect cells (baculovirus; pBlueBacHis2B / pFASTBacHTc)
T1 sequence (P00533 669-1210): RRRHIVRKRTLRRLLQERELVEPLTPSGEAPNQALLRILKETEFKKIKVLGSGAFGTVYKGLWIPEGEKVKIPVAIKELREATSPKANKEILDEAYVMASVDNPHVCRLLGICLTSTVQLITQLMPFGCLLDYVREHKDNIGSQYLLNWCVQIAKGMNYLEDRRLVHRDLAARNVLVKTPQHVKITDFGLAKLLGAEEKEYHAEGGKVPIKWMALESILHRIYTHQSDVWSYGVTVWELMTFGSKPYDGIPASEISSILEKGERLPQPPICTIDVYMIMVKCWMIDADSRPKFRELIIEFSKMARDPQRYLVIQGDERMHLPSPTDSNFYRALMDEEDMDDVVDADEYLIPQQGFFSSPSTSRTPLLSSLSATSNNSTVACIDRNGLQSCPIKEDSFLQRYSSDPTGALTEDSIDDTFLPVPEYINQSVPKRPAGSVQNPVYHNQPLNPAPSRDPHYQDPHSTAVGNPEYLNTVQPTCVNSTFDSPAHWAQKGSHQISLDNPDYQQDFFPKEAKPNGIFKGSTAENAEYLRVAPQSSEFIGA

[2] = HOP-62 (Non-Small Cell Lung Cancer), NCI one dose 10 µM
[3] = SK-MEL-5 (Melanoma), NCI one dose 10 µM
[4] = DU-145 (Prostate Cancer), NCI one dose 10 µM
[5] = EKVX (Non-Small Cell Lung Cancer), NCI one dose 10 µM
[6] = CCRF-CEM (Leukemia), NCI one dose 10 µM
[7] = MCF7 (Breast Cancer), NCI one dose 10 µM
[8] = KM12 (Colon Cancer), NCI one dose 10 µM
[9] = SK-OV-3 (Ovarian Cancer), NCI one dose 10 µM
[10] = UACC-257 (Melanoma), NCI one dose 10 µM
[11] = HCC-2998 (Colon Cancer), NCI one dose 10 µM
[12] = SW-620 (Colon Cancer), NCI one dose 10 µM
[13] = COLO 205 (Colon Cancer), NCI one dose 10 µM
[14] = HOP-62, Non-Small Cell Lung Cancer, NCI one dose
[15] = SK-MEL-5, Melanoma, NCI one dose
[16] = DU-145, Prostate Cancer, NCI one dose
[17] = EKVX, Non-Small Cell Lung Cancer, NCI one dose
[18] = CCRF-CEM, Leukemia, NCI one dose
[19] = MCF7, Breast cancer, NCI one dose
[20] = KM12, Colon cancer, NCI one dose
[21] = SK-OV-3, Ovarian Cancer, NCI one dose
[22] = UACC-257, Melanoma, NCI one dose
[23] = HCC-2998, Colon cancer, NCI one dose
[24] = SW-620, Colon cancer, NCI one dose
[25] = COLO 205, Colon cancer, NCI one dose

BRAF^V600E, sequence (P28028 whole entry V585E): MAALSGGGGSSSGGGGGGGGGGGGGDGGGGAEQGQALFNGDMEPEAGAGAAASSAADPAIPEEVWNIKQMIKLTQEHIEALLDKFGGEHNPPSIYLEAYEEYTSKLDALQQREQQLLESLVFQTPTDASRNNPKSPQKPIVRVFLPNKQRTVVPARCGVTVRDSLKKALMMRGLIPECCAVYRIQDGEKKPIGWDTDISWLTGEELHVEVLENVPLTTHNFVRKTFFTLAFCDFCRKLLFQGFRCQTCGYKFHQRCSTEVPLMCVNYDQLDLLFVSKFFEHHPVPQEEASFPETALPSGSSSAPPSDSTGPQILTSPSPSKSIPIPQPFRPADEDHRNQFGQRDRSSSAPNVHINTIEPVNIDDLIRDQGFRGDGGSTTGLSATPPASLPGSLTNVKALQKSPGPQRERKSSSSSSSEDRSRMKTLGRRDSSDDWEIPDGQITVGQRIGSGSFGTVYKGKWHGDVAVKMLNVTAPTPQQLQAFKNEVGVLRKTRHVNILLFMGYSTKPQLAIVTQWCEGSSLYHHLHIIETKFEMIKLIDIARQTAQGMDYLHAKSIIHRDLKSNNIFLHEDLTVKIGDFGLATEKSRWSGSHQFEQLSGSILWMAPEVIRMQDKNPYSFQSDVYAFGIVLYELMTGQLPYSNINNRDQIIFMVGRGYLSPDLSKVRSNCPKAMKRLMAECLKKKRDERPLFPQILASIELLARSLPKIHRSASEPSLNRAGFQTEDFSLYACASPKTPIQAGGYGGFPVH

SMILES	IC50 (BRAF^V600E) [nM]	viability at 96 h, 50 µM [1] [%]	inhibition at 10 µM (HOP-62; [2]) [%]	inhibition at 10 µM (SK-MEL-5; [3]) [%]	inhibition at 10 µM (DU-145; [4]) [%]	inhibition at 10 µM (EKVX; [5]) [%]	inhibition at 10 µM (CCRF-CEM; [6]) [%]	inhibition at 10 µM (MCF7; [7]) [%]	inhibition at 10 µM (KM12; [8]) [%]	inhibition at 10 µM (SK-OV-3; [9]) [%]	inhibition at 10 µM (UACC-257; [10]) [%]	inhibition at 10 µM (HCC-2998; [11]) [%]	inhibition at 10 µM (SW-620; [12]) [%]	inhibition at 10 µM (COLO 205; [13]) [%]	IC50 (EGFR) [nM]	melting point [°C]	inhibition at 10 µM (HOP-62; [14]) [%]	inhibition at 10 µM (SK-MEL-5; [15]) [%]	inhibition at 10 µM (DU-145; [16]) [%]	inhibition at 10 µM (EKVX; [17]) [%]	also measured
COc1cc(-c2nc3cc(-c4nnc(SCC(=O)Nc5ccc(C(=O)/C=C/c6ccc(Cl)cc6)cc5)o4)ccc3[nH]2)cc(OC)c1OC [Compound 7v, 2-{5-[2-(3,4,5-Trimethoxyphenyl)-1 H-benzo[d]imidazol-5-yl]-1,3,4-oxadiazol-2-ylthio}-N-{4-[(E)-3-(4-chlorophenyl)acryloyl]phenyl}acetamide]	3100 ± 200	87	0	8.57	0	0.51	18.4	40.9	9.06	0	0	0	0	0	2800 ± 300	–	–	–	–	–	–
O=C(CSc1nnc(-c2ccc3[nH]c(-c4ccc(Cl)cc4)nc3c2)o1)Nc1ccc(C(=O)/C=C/c2ccc(Cl)cc2)cc1 [Compound 7g, 2-{5-[2-(4-Chlorophenyl)-1 H-benzo[d]imidazol-5-yl]-1,3,4-oxadiazol-2-ylthio}-N-{4-[(E)-3-(4-chlorophenyl)acryloyl]phenyl}acetamide]	1000 ± 200	91	2.12	6.32	0	6.19	13.6	44.8	0.67	0	0	0	0	0	1700 ± 200	215 to 217	–	–	–	–	–
COc1cc(/C=C/C(=O)c2ccc(NC(=O)CSc3nnc(-c4ccc5[nH]c(-c6ccccc6)nc5c4)o3)cc2)cc(OC)c1OC [Compound 7e, 2-{5-[2-Phenyl-1 H-benzo[d]imidazol-5-yl]-1,3,4-oxadiazol-2-ylthio}-N-{4-[(E)-3-(3,4,5-trimethoxyphenyl)acryloyl]phenyl}acetamide]	900 ± 100	87	–	–	–	–	–	–	–	–	–	–	–	–	1150 ± 200	143 to 144	0	7.81	9.02	0.96	inhibition at 10 µM (CCRF-CEM; [18]): 62.5%; inhibition at 10 µM (MCF7; [19]): 56.1%; inhibition at 10 µM (KM12; [20]): 10%; inhibition at 10 µM (SK-OV-3; [21]): 0%; inhibition at 10 µM (UACC-257; [22]): 12.4%; inhibition at 10 µM (HCC-2998; [23]): 0%; inhibition at 10 µM (SW-620; [24]): 1.21%; inhibition at 10 µM (COLO 205; [25]): 0%
COc1ccc(/C=C/C(=O)c2ccc(NC(=O)CSc3nnc(-c4ccc5[nH]c(-c6ccc(Cl)cc6)nc5c4)o3)cc2)cc1 [Compound 7h, 2-{5-[2-(4-Chlorophenyl)-1 H-benzo[d]imidazol-5-yl]-1,3,4-oxadiazol-2-ylthio}-N-{4-[(E)-3-(4-methoxyphenyl)acryloyl]phenyl}acetamide]	2700 ± 300	87	0	10.3	0	0	40.1	20.3	0.3	0	0	0	0	0	2300 ± 200	228 to 230	–	–	–	–	–
COc1ccc(-c2nc3cc(-c4nnc(SCC(=O)Nc5ccc(C(=O)/C=C/c6cc(OC)c(OC)c(OC)c6)cc5)o4)ccc3[nH]2)cc1 [Compound 7o, 2-{5-[2-(4-Methoxyphenyl)-1 H-benzo[d]imidazol-5-yl]-1,3,4-oxadiazol-2-ylthio}-N-{4-[(E)-3-(3,4,5-trimethoxyphenyl)acryloyl]phenyl}acetamide]	–	89	–	–	–	–	–	–	–	–	–	–	–	–	–	154 to 156	0	0.99	0	0	inhibition at 10 µM (CCRF-CEM; [18]): 0%; inhibition at 10 µM (MCF7; [19]): 18.4%; inhibition at 10 µM (KM12; [20]): 0%; inhibition at 10 µM (SK-OV-3; [21]): 0%; inhibition at 10 µM (UACC-257; [22]): 0%; inhibition at 10 µM (HCC-2998; [23]): 0%; inhibition at 10 µM (SW-620; [24]): 0%; inhibition at 10 µM (COLO 205; [25]): 0%
O=C(CSc1nnc(-c2ccc3[nH]c(-c4ccc(Cl)cc4)nc3c2)o1)Nc1ccc(C(=O)/C=C/c2ccccc2)cc1 [Compound 7f, 2-{5-[2-(4-Chlorophenyl)-1 H-benzo[d]imidazol-5-yl]-1,3,4-oxadiazol-2-ylthio}-N-{4-[(E)-3-phenylacryloyl]phenyl}acetamide]	–	87	0	0.99	0	0	0	18.4	0	0	0	0	0	0	–	161 to 163	–	–	–	–	–
